From paper PMC10144134, “Characterization of Potent ABCG2 Inhibitor Derived from Chromone: From the Mechanism of Inhibition to Human Extracellular Vesicles for Drug Delivery” (Pharmaceutics, 2023)
“Also recorded” adds a separate entry of the source. Each block holds one molecule with its values, some of them ahead of it.

Key:
MRP1 = test system: T1, MRP1; test: Cell-based transport assay by flow cytometry, BHK21-ABCC1; parameters: species or system human; settings: 10 µM, calcein-AM 0.2 µM
T1 construct: expressed in transfected cells; host or cells: BHK21 (stably transfected, methotrexate selection; gift of Dr. Attilio Di Pietro)
Method: (§1) Cell lines (HEK293-ABCG, NIH3T3-ABCB1 and BHK21-ABCC1) were kept at 37 °C in the presence of 5% CO2 in DMEM high glucose (Gibco, Sao Paulo, Brazil) supplemented with 10% Fetal Bovine Serum (Gibco, Sao Paulo, Brazil) and 1% antibiotic (penicillin/streptomycin–Hyclone Laboratories, Logan, UT, USA). The stably transfected cells were kept with specific selection agent for each ABC transporter: ABCG2–G418 0.75 mg/mL, P-gp–Colchicine 60 ng/mL, MRP1–Methotrexate 0.1 mg/mL. The cells HEK293-ABCG2, NIH3T3-ABCB1 and BHK21-ABCC1, overexpressing ABCG2, P-gp and MRP1, respectively, were kindly provided by Dr. Attilio Di Pietro (IBCP, Lyon, France).
Cells were seeded into 24-well plates at a density of 1 × 10^5 cells/well and incubated for 48 h at 37 °C and 5% of CO2. When the confluence reached 90–95%, the medium was removed and the cells were exposed to inhibitors and substrates for 30 min at 37 °C. […] The intracellular fluorescence was recorded by flow cytometry (FACS Calibur–Becton Dickinson, San Diego, CA, USA). […] The inhibition percent was calculated as follows: % of inhibition = ((C − S))/((I − S)) × 100, where “C” represents the treatment with substrate + compound in test, “S” represents the treatment with substrate alone and “I” represents the treatment with substrate + reference inhibitor.

P-gp [1] = target: T2, P-gp (Homo sapiens, UniProt P08183); test: Thermostabilization assay on ATPase activity of P-gp; format: biochemical; parameters: made in house; host or cells: High-Five insect cells (total membrane vesicles); settings: C4a 10 μM
T2 sequence (P08183 whole entry): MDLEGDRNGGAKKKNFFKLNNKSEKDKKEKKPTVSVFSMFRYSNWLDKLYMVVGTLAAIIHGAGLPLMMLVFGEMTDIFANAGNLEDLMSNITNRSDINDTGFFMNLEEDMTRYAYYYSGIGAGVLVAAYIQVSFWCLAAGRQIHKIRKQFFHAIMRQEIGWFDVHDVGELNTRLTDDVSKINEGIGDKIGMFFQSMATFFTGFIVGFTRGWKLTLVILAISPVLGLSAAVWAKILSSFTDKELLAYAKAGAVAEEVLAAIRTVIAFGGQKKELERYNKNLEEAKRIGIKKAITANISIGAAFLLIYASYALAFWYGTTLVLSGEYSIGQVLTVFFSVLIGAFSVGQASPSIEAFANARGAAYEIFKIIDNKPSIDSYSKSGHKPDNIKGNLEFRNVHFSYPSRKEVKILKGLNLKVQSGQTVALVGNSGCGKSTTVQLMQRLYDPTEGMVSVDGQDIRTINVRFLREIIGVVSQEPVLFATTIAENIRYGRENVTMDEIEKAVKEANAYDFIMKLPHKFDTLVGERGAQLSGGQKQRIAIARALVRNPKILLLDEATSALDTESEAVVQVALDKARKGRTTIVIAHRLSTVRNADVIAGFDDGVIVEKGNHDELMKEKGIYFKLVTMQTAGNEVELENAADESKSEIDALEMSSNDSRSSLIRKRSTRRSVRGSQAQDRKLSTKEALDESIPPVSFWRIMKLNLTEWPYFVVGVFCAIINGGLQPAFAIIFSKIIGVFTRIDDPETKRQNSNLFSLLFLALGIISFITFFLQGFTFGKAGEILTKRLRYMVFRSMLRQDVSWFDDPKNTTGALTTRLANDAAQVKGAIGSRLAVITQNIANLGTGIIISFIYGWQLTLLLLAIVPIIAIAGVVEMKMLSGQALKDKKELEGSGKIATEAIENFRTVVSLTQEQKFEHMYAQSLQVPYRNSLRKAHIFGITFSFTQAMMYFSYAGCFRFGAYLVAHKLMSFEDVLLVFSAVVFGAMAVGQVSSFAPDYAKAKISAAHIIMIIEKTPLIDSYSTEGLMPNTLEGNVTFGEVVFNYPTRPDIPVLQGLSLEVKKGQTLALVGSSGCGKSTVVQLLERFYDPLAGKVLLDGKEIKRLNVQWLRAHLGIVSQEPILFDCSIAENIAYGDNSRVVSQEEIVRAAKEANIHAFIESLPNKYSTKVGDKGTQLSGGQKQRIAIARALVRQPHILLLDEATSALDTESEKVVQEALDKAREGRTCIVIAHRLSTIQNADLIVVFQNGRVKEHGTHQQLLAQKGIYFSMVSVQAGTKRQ
Method: (§2) The thermal stability assay was performed according to previous reports. […] To evaluate the effect of C4a over thermal stability, each sample was prepared with 12.5 mM MgCl2 or 6.25 mM ATP and incubated at a temperature ranging from 37 to 71 °C for 10 min using a thermocycler C1000 Touch (Bio-Rad, Hercules, CA, USA). After incubation, 10 µL of 25 mM ATP or 50 mM MgCl2 (5 and 10 mM final concentration, respectively) was added and incubated at 37 °C/20 min to allow ATP hydrolysis. The reaction was stopped with the addition of 50 µL of Pi reagent containing 1% ammonium molybdate, 2.5 N H2SO4 and 0.014% potassium-antimony tartrate. To evaluate the absorbance, the samples were transferred to a 96-well plate (50 µL/well), then 150 µL of 0.33% sodium ascorbate solution was added. The absorbance was measured after 10 min incubation at room temperature using the microplate reader Spectramax iD3 (Molecular Devices, San Jose, CA, USA). The sensitive activity to vanadate (Vi) was calculated as the difference between the activity in the absence of Vi minus the activity in the presence of Vi at each temperature.

P-gp [2] = target: T2, P-gp; test: ATPase activity, High-Five P-gp total membrane vesicles
Method: (§4) The absorbance was measured after 10 min incubation at room temperature using the spectrophotometer Ultrospec 3100 pro (Amersham Biosciences, Amersham, UK) at 880 nm wavelength.

Water solubility = format: physicochemical; settings: aqueous
HEK293-ABCG2 cells = test: MTT chemosensitization assay, HEK293-ABCG2; format: cell-based, human
Method: (§3) HEK293 WT (wild type) and HEK293-ABCG2 cells were seeded (2.5 × 10^4 cell/well) into a 96-well plate and incubated for 24 h. Cells were concomitantly treated with EVs […]C4a (0.1, 1 and 10 μM) and SN-38 (10 nM) for 72 h. After this period, the medium was removed, cells were washed with PBS (100 μL) and incubated with MTT solution (100 μL of solution 0.5 mg/mL in PBS) for 4 h. Then, the solution was removed, and the formazan crystals were dissolved with 100 μL of ethanol/DMSO (1:1). The absorbance was measured using a microplate reader at 595 nm (Bio-Rad iMark, Hercules, CA, USA).

ABCG2 [3] = target: T3, ABCG2 (Homo sapiens, UniProt Q9UNQ0); test: ATPase activity, High-Five ABCG2 total membrane vesicles
T3 sequence (Q9UNQ0 1-655): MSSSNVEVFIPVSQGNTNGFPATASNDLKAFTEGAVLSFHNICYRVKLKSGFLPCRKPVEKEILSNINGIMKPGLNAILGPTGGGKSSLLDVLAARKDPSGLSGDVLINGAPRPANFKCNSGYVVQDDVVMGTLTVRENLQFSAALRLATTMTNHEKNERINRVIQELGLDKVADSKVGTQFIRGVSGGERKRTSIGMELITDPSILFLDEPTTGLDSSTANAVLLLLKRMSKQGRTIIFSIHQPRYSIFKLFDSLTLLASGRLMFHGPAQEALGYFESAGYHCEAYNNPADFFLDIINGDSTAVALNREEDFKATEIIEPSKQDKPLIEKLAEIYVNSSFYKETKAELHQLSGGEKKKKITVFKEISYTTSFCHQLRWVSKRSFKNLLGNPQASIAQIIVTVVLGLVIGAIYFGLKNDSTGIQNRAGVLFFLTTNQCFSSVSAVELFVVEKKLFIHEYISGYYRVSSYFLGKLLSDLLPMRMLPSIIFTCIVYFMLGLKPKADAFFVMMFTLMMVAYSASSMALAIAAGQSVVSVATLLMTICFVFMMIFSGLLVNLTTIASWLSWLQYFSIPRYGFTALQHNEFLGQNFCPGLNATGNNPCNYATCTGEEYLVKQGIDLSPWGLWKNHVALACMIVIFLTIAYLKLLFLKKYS
Method: as §4

ABCG2 [4] = target: T3, ABCG2; test: Cell-based transport assay by flow cytometry, HEK293-ABCG2; parameters: expressed in transfected cells; host or cells: HEK293 (stably transfected, G418 selection; gift of Dr. Attilio Di Pietro)
Method: as §1
Cells were seeded into 24-well plates at a density of 1 × 10^5 cells/well and incubated for 48 h at 37 °C and 5% of CO2. When the confluence reached 90–95%, the medium was removed and the cells were exposed to inhibitors and substrates for 30 min at 37 °C. Then, the cell monolayer was washed with PBS at 37 °C, trypsinized and resuspended with 300 µL of cold PBS. The intracellular fluorescence was recorded by flow cytometry (FACS Calibur–Becton Dickinson, San Diego, CA, USA). At least 10,000 events were acquired. […] The inhibition percent was calculated as follows: % of inhibition = ((C − S))/((I − S)) × 100, where “C” represents the treatment with substrate + compound in test, “S” represents the treatment with substrate alone and “I” represents the treatment with substrate + reference inhibitor.
This study was approved by the Ethics Committee of SCS/UFPR (CAAE 51428521.2.0000.0102). Human blood (9 mL) was collected in tubes containing 8 mM of EGTA and centrifuged at 425× g for 10 min at room temperature. Human plasma (~4 mL) was separated in a new tube. In the tube containing blood cells (~5 mL), the same volume of RPMI (~5 mL) was added. The material was homogenized and centrifuged at 425× g for 10 min at room temperature. The supernatant was discarded, and the pellet of cells was centrifuged again at 425× g for 10 min, then, the supernatant was discarded, and the pellet was suspended in 5 mL of RPMI containing 2 mM of CaCl2. After 1 h of incubation at 37 °C, the material was centrifuged at 425× g for 10 min at 10 °C. Additionally, the tube containing the human plasma was also centrifuged at 425× g for 10 min at 10 °C. The supernatant from both tubes (human cells and plasma) was centrifuged at 4000 g for 10 min at 10 °C. The supernatant was separated and centrifuged at […] for 120 min at 10 °C. The supernatant was discarded and the pellet containing the vesicles was suspended in 60 µL of PBS. The protein concentration was quantified by Bradford assay. For each condition, 10 µL of the vesicles in PBS was diluted by adding 190 µL of PBS. […]

P-gp [5] = target: T2, P-gp; test: Cell-based transport assay by flow cytometry, NIH3T3-ABCB1; settings: 10 µM, rhodamine 123 10 µM
Method: as §1
Cells were seeded into 24-well plates at a density of 1 × 10^5 cells/well and incubated for 48 h at 37 °C and 5% of CO2. […] The intracellular fluorescence was recorded by flow cytometry (FACS Calibur–Becton Dickinson, San Diego, CA, USA). […] The inhibition percent was calculated as follows: % of inhibition = ((C − S))/((I − S)) × 100, where “C” represents the treatment with substrate + compound in test, “S” represents the treatment with substrate alone and “I” represents the treatment with substrate + reference inhibitor.
This study was approved by the Ethics Committee of SCS/UFPR (CAAE 51428521.2.0000.0102). […] The protein concentration was quantified by Bradford assay. […]

ABCG2 [6] = target: T3, ABCG2; parameters: expressed in transfected cells; host or cells: HEK293 (stably transfected, G418 selection; gift of Dr. Attilio Di Pietro); settings: read-out: IC50 of ABCG2 inhibition; cited from earlier work
ABCG2 [7] = target: T3, ABCG2; test: Thermostabilization assay on ATPase activity of ABCG2; format: biochemical; parameters: expressed in transfected cells; host or cells: HEK293 (stably transfected, G418 selection; gift of Dr. Attilio Di Pietro); settings: C4a 10 μM
Method: as §2

ABCG2 [8] = target: T3, ABCG2; test: 5D3 shift assay; format: cell-based; parameters: expressed in transfected cells; host or cells: HEK293 (stably transfected, G418 selection; gift of Dr. Attilio Di Pietro); settings: C4a 10 µM, Ko143 2 µM, HEK293-ABCG2
Method: HEK293-ABCG2 cells were seeded into 24-well plates at a density of 2 × 10^5 cells/well. When the confluence reached 90–95%, the medium was removed and the cells were exposed to inhibitors for 30 min at 37 °C. Then, the cell monolayer was washed with PBS at 37 °C, trypsinized and resuspended with 300 µL of PBS. Cells were centrifuged (1000× g for 3 min). The pellet was resuspended in 100 μL of PBS/BSA (40 μg/mL of BSA) and the primary antibody (mouse anti-human CD338 Clone 5D3, BD Pharmingen, San Diego, CA, USA) was added (1:100) for 30 min at 37 °C. Cells were centrifuged (1000× g, 3 min), the supernatant removed and the pellet resuspended with 100 μL of PBS containing the secondary antibody (goat anti-mouse conjugated with Phycoerythrin, BD Pharmingen, San Diego, CA, USA) at 1:200 for 30 min at 37 °C. Then, cells were centrifuged, the supernatant removed and the pellet was resuspended in 300 μL of PBS. The analysis was performed using a FACS Calibur (Becton Dickinson, San Diego, CA, USA).

ABCG2 versus P-gp = target: T4, ABCG2 versus P-gp (Homo sapiens, UniProt Q9UNQ0); test: in vitro; settings: high-five membrane vesicles, pH 6.8
T4 sequence (Q9UNQ0 1-655): T3 sequence (Q9UNQ0 1-655)
Method: as §4

ABCG2 [9] = target: T3, ABCG2; test: Cell-based transport assay by confocal microscopy; parameters: expressed in transfected cells; host or cells: HEK293 (stably transfected, G418 selection; gift of Dr. Attilio Di Pietro); settings: 10 µM, hoechst 33342 2 µM
Method: Cells were seeded into 24-well plates at a density of 1 × 10^5 cells/well containing coverslips for microscopy and incubated for 48 h at 37 °C and 5% of CO2. Cells that adhered to the coverslips were treated with C4a and hoechst 33342 for 30 min at 37 °C. Then, the cell monolayer was washed with PBS at 37 °C and the coverslips removed from the plate and placed on slides for microscopy. The slides were then read in a confocal microscope Nikon A1R MP + (NIKON, Tokyo, Japan) using an oil-immersed 40× objective (with the numerical aperture of 1.15). A laser of 405 nm was used for excitation and the fluorescence emission was recorded using a bandpass filter of 425–475 nm. The software Nis Elements 4.20 (NIKON, Tokyo, Japan) was used for visualization of the images.

[10] = test system: implanted ABCG2-positive tumors; settings: cited from earlier work
[11] = parameters: method as in PMID 17317193; settings: cited from earlier work
HEK293 WT cells = test: MTT cell viability, HEK293 WT; format: cell-based, human; settings: SN38 10 nM, 72 h
Method: as §3

effect on ATP-induced thermostabilization of P-gp (P-gp [1]): preventing thermostabilization
IT50, P-gp -ATP (P-gp [1]; absence of ATP): 50.02 ± 0.31 ºC
EC50 (P-gp [2]): 4300 nM
solubility (Water solubility): low solubility
EC50 (ABCG2 [3]): 64 nM
inhibition of bodipy-prazosin efflux mediated by ABCG2 (ABCG2 [4]; 10 µM, bodipy-prazosin 0.2 µM): inhibited the efflux of all
inhibition of pheophorbide-a efflux mediated by ABCG2 (ABCG2 [4]; 10 µM, pheophorbide a 10 µM): inhibited the efflux of all
inhibition of ABCG2 by supernatant (human EV preparation) (ABCG2 [4]; C4a free in supernatant, even at lower concentration tested 0.1 µM): strongly inhibited ABCG2
inhibition of rhodamine 123 efflux mediated by P-gp (P-gp [5]): did not inhibit
effect on thermal stability of ABCG2 (ABCG2 [7]): mild effect
IT50, ABCG2 -ATP (ABCG2 [7]; absence of ATP): 50.01 ± 0.26 ºC
IT50 (temperature that reduces 50% of the ATPase activity), ABCG2 +ATP (ABCG2 [7]; presence of ATP): 55.44 ± 0.25 ºC
binding of conformational antibody 5D3 (ABCG2 [8]): increased the binding of 5D3
inhibition of hoechst 33342 efflux mediated by ABCG2 (confocal microscopy) (ABCG2 [9]): inhibited the efflux of all
Compound: COc1ccc2[nH]cc(CCNC(=O)c3cc(=O)c4c(OCc5ccccc5Br)cccc4o3)c2c1 [C4a, chromone 4a]
inhibition of calcein efflux mediated by MRP1 (MRP1): did not inhibit
reversion of the resistance phenotype mediated by ABCG2, supernatant (HEK293-ABCG2 cells; supernatant containing C4a free at 0.1 to 10 µM + SN38 10 nM): complete reversion
inhibition of mitoxantrone efflux mediated by ABCG2 (ABCG2 [4]; 10 µM, mitoxantrone 10 µM, HEK293-ABCG2): completely inhibited; also recorded: inhibited the efflux of all
IC50 (ABCG2 [6]): 86 nM
selectivity ratio at 20 min (ABCG2 versus P-gp): 67

solubility (Water solubility): low solubility
Compound: COc1ccc2[nH]cc(CCNC(=O)c3cc(=O)c4c(OCc5ccc(Br)cc5)cccc4o3)c2c1 [MBL-II-141]
IC50 (ABCG2 [6]): 260 nM
growth of implanted ABCG2-positive tumors in mice ([10]; in combination with irinotecan): inhibiting the growth of implanted ABCG2-positive tumors

Compound: COc1ccc2c(=O)c3cccc(C(=O)NCc4ccc(OC)c(OC)c4)c3[nH]c2c1 [MBLI-87]
cytotoxicity [11]: low cytotoxicity
IC50 (ABCG2 [6]): 450 nM
sensitization of xenografic tumors overexpressing ABCG2 to irinotecan [10]: successfully sensitized xenografic tumors overexpressing ABCG2 to irinotecan

Compound: CCc1c2c(nc3ccc(O)cc13)-c1cc3c(c(=O)n1C2)COC(=O)[C@]3(O)CC [SN38, reference compound]
cytotoxic effect on wild-type HEK293 cells (HEK293 WT cells): highly cytotoxic
cell viability of cells overexpressing ABCG2 (HEK293-ABCG2 cells; SN38 10 nM, 72 h, MTT): mild decrease in the cell viability
